Read-outs that look alike come from different tables or passages of the source. Where a SMILES comes first, the peptide text is derived from it. Where no end group is shown, it is not given here.
Assays:
[1] = target: CtBP-E1A interaction (Homo sapiens, UniProt Q13363); test: CtBP-E1A interaction inhibition (AlphaScreen / fluorescence polarization competition assay); type: binding
Experimental: The ability of peptides to inhibit CtBP binding can be monitored by two biochemical assays. An AlphaScreen assay (Perkin-Elmer) was developed that is capable of detecting the CtBP-E1A interaction. Purified GST-E1A and 6xHis-CtBP are incubated with glutathione-conjugated donor beads and nickel-chelated acceptor beads respectively. The interaction between CtBP and E1A brings the donor and acceptor beads in close proximity, which produces a fluorescence signal after laser excitation and can be detected using the EnVision plate reader. A peptide that inhibits this interaction will limit the proximity of the beads and thus a loss in fluorescence signal will occur. In addition to the alphascreen, a fluorescence polarization based assay with a fluorescein-labeled 14mer E1A peptide ([…] (SEQ ID NO: 1)) was also developed. Purified 6xHis-CtBP is incubated with the fluorescein-labeled E1A peptide and changes in the polarization value of the labeled peptide are detected using the EnVision plate reader. A decrease in peptide binding to CtBP can be detected by an […], and used to monitor peptide inhibition. IC50 values of designed peptides can be determined using either of these assays through the addition of increasing amounts in each well and monitoring the degree of inhibition of the CtBP-E1A interaction.
Multiple amino acid sequences may appear at positions outside the conserved peptide motif. The most frequently occurring amino acids in these positions are used to design the peptides that bind CtBP with the highest affinity. The affinity of these new peptides is compared to the original 14mer E1A peptide (SEQ ID NO:1) by comparing the IC50 of these peptides in inhibiting the CtBP/E1A protein interaction in a competition assay. The peptide identified from phage display that competes with the CtBP/E1A protein interaction better than the original 14mer E1A peptide is selected and conjugated to the cell penetrating peptide of the present invention. Also provided in Table 3 are […] for selected peptides.
The ability of peptides to inhibit CtBP binding can be monitored by two biochemical assays. An AlphaScreen assay (Perkin-Elmer) was developed that is capable of detecting the CtBP-E1A interaction. Purified GST-E1A and 6xHis-CtBP are incubated with glutathione-conjugated donor beads and nickel-chelated acceptor beads respectively. The interaction between CtBP and E1A brings the donor and acceptor beads in close proximity, which produces a fluorescence signal after laser excitation and can be detected using the EnVision plate reader. A peptide that inhibits this interaction will limit the proximity of the beads and thus a loss in fluorescence signal will occur. In addition to the alphascreen, a fluorescence polarization based assay with a fluorescein-labeled 14mer E1A peptide ([…] (SEQ ID NO: 1)) was also developed. Purified 6xHis-CtBP is incubated with the fluorescein-labeled E1A peptide and changes in the polarization value of the labeled peptide are detected using the EnVision plate reader. A decrease in peptide binding to CtBP can be detected by an […], and used to monitor peptide inhibition. IC50 values of designed peptides can be determined using either of these assays through the addition of increasing amounts in each well and monitoring the degree of inhibition of the CtBP-E1A interaction. Also provided in Table 4 are IC50 for selected peptides.

[2] = target: T1, CtBP (Homo sapiens, UniProt Q13363); test: Fluorescence polarization competition of unlabeled peptide with FITC-labeled 14mer peptide; type: binding
T1 construct: 6xHis
Experimental: (§1) Additional peptides were tested for in vitro inhibitory potency (Table 5). For Kd determination, FITC-labeled peptide (FITC-peptide) was incubated with varying concentrations of CtBP. The fluorescence polarization values of the FITC-peptide were measured and plotted against CtBP concentration to determine Kd of the FITC-peptide with CtBP using the Prism program. […] For IC50 determination, a fluorescence polarization assay was utilized. […] Increasing concentrations of unlabeled peptide were added to compete with the FITC-labeled peptide, leading to a decreased fluorescence polarization value.

[3] = target: T1, CtBP; test: Fluorescence polarization Kd determination of FITC-peptide with CtBP; type: binding; conditions: read-out: Kd
Experimental: as §1

[4] = test system: IMQ-based psoriasis model; test: IMQ-based psoriasis model; type: in vivo, mouse; conditions: Example 12, subcutaneously applied on the skin, FIG. 15B
[5] = test system: IMQ-based psoriasis model; test: IMQ-based psoriasis model; type: in vivo, mouse; conditions: treated mice versus PBS control
Experimental: To elucidate the molecular mechanisms for the Pep1-E1A blocker, H&E and immunostaining for proliferative and inflammatory markers was performed.

[6] = IC50 value, Table 3, inhibition of CtBP/E1A protein interaction

Compound: CC(=O)NCCCC[C@H](NC(=O)[C@H](CS)NC(=O)[C@H](CO)NC(=O)[C@H](CC(C)C)NC(=O)[C@H](CC(=O)O)NC(=O)[C@H](CC(C)C)NC(=O)[C@@H]1CCCN1C(=O)[C@H](CCC(N)=O)NC(=O)CNC(=O)[C@@H]1CCCN1C(=O)[C@@H](N)CCC(=O)O)C(=O)N[C@@H](CCCNC(=N)N)C(=O)N1CCC[C@H]1C(=O)N[C@@H](CCCNC(=N)N)C(=O)O [K239-Acetylated] (H-EPGQPLDLSCK(Ac)RPR-OH; N-terminus and C-terminus assumed)
- IC50 [1, 6]: 26.6 µM

Compound: CC(C)C[C@H](NC(=O)[C@H](CC(=O)O)NC(=O)[C@H](CC(C)C)NC(=O)[C@@H]1CCCN1C(=O)[C@H](CCC(N)=O)NC(=O)CNC(=O)[C@@H]1CCCN1C(=O)[C@@H](N)CCC(=O)O)C(=O)N[C@@H](CO)C(=O)N[C@@H](CS)C(=O)N[C@@H](C)C(=O)N[C@@H](CCCNC(=N)N)C(=O)N1CCC[C@H]1C(=O)N[C@@H](CCCNC(=N)N)C(=O)O [Peptide K239A] (H-EPGQPLDLSCARPR-OH; N-terminus and C-terminus assumed)
- IC50 [1, 6]: 21.9 µM

Compound: CC(C)C[C@H](NC(=O)[C@H](CC(=O)O)NC(=O)[C@H](CC(C)C)NC(=O)[C@@H]1CCCN1C(=O)[C@H](CCC(N)=O)NC(=O)CNC(=O)[C@@H]1CCCN1C(=O)[C@@H](N)CCC(=O)O)C(=O)N[C@@H](CO)C(=O)N[C@@H](CS)C(=O)N[C@@H](CCC(N)=O)C(=O)N[C@@H](CCCNC(=N)N)C(=O)N1CCC[C@H]1C(=O)N[C@@H](CCCNC(=N)N)C(=O)O [Peptide K239Q] (H-EPGQPLDLSCQRPR-OH; N-terminus and C-terminus assumed)
- IC50 [1, 6]: 12 µM

Compound: CC(C)C[C@H](NC(=O)[C@H](CC(=O)O)NC(=O)[C@H](CC(C)C)NC(=O)[C@@H]1CCCN1C(=O)CNC(=O)[C@H](CC(=O)O)NC(=O)CNC(=O)CN)C(=O)N[C@@H](CS)C(=O)N[C@@H](CS)C(=O)N[C@@H](CCCNC(=N)N)C(=O)N[C@@H](CCCCN)C(=O)N[C@@H](CCCNC(=N)N)C(=O)N1CCC[C@H]1C(=O)O [SEQ ID NO:133] (H-GGDGPLDLCCRKRP-OH; N-terminus and C-terminus assumed)
- IC50 [2]: 18.8 µM

Compound: CC(C)C[C@H](NC(=O)[C@H](CC(N)=O)NC(=O)[C@H](CC(C)C)NC(=O)[C@@H]1CCCN1C(=O)[C@H](CCC(=O)O)NC(=O)[C@H](CC(=O)O)NC(=O)[C@@H](NC(=O)[C@@H]1CCCN1)[C@@H](C)O)C(=O)N[C@@H](CO)C(=O)N[C@@H](CC(C)C)C(=O)N[C@@H](CCCCN)C(=O)N[C@@H](CCCNC(=N)N)C(=O)N1CCC[C@H]1C(=O)N[C@@H](CCCNC(=N)N)C(=O)O [SEQ ID NO:134] (H-PTDEPLNLSLKRPR-OH; N-terminus and C-terminus assumed)
- IC50 [2]: 4.4 µM

Compound: CC(C)C[C@H](NC(=O)[C@H](CC(=O)O)NC(=O)[C@H](CC(C)C)NC(=O)[C@@H]1CCCN1C(=O)[C@H](CCC(N)=O)NC(=O)CNC(=O)[C@@H]1CCCN1C(=O)[C@H](CCC(=O)O)NC(=O)[C@H](CCC(=O)O)NC(=O)[C@H](CC(C)C)NC(=O)[C@H](CCC(N)=O)NC(=O)[C@@H]1CCCN1C(=O)[C@@H]1CCCN1C(=O)[C@H](CCCNC(=N)N)NC(=O)[C@H](CCCNC(=N)N)NC(=O)[C@H](CCCNC(=N)N)NC(=O)[C@H](CCC(N)=O)NC(=O)[C@H](CCCNC(=N)N)NC(=O)[C@H](CCCNC(=N)N)NC(=O)[C@H](CCCCN)NC(=O)[C@H](CCCCN)NC(=O)[C@H](CCCNC(=N)N)NC(=O)CN)C(=O)N[C@@H](CO)C(=O)N[C@@H](CS)C(=O)N[C@@H](CCCCN)C(=O)N[C@@H](CCCNC(=N)N)C(=O)N1CCC[C@H]1C(=O)N[C@@H](CCCNC(=N)N)C(=O)N[C@@H](CC(=O)O)C(=O)N[C@@H](Cc1ccc(O)cc1)C(=O)N[C@@H](CCCCN)C(=O)N[C@@H](CC(=O)O)C(=O)N[C@@H](CC(=O)O)C(=O)N[C@@H](CC(=O)O)C(=O)N[C@@H](CC(=O)O)C(=O)N[C@@H](CCCCN)C(=O)O [Tat-E1A fusion] (H-GRKKRRQRRRPPQLEEPGQPLDLSCKRPRDYKDDDDK-OH; N-terminus and C-terminus assumed)
- IC50 ([1]; IC50 of inhibition of the CtBP/E1A interaction, FIG. 3, peptide purified from E. coli): ~7.7 µM
- IC50 [1, 6]: 1.7 µM

Compound: CC(C)C[C@H](NC(=O)[C@H](CC(=O)O)NC(=O)[C@H](CC(C)C)NC(=O)[C@@H]1CCCN1C(=O)[C@H](CCC(N)=O)NC(=O)CNC(=O)[C@@H]1CCCN1C(=O)[C@H](CCC(=O)O)NC(=O)[C@H](CCC(=O)O)NC(=O)[C@H](CC(C)C)NC(=O)[C@H](CCC(N)=O)NC(=O)[C@@H]1CCCN1C(=O)[C@@H]1CCCN1C(=O)[C@H](CCCNC(=N)N)NC(=O)[C@H](CCCNC(=N)N)NC(=O)[C@H](CCCNC(=N)N)NC(=O)[C@H](CCC(N)=O)NC(=O)[C@H](CCCNC(=N)N)NC(=O)[C@H](CCCNC(=N)N)NC(=O)[C@H](CCCCN)NC(=O)[C@H](CCCCN)NC(=O)[C@H](CCCNC(=N)N)NC(=O)CN)C(=O)N[C@@H](CO)C(=O)N[C@@H](CS)C(=O)N[C@@H](CCC(N)=O)C(=O)N[C@@H](CCCNC(=N)N)C(=O)N1CCC[C@H]1C(=O)N[C@@H](CCCNC(=N)N)C(=O)N[C@@H](CC(=O)O)C(=O)N[C@@H](Cc1ccc(O)cc1)C(=O)N[C@@H](CCCCN)C(=O)N[C@@H](CC(=O)O)C(=O)N[C@@H](CC(=O)O)C(=O)N[C@@H](CC(=O)O)C(=O)N[C@@H](CC(=O)O)C(=O)N[C@@H](CCCCN)C(=O)O [Tat-E1A-Flag (K239Q)] (H-GRKKRRQRRRPPQLEEPGQPLDLSCQRPRDYKDDDDK-OH; N-terminus and C-terminus assumed)
- IC50 [1, 6]: 7.7 µM

Compound: CC(C)C[C@H](NC(=O)[C@H](CCC(=O)O)NC(=O)[C@H](CC(=O)O)NC(=O)[C@H](CC(C)C)NC(=O)[C@@H]1CCCN1C(=O)[C@H](CCC(N)=O)NC(=O)CNC(=O)[C@@H]1CCCN1C(=O)[C@H](CCC(=O)O)NC(=O)[C@H](CCC(=O)O)NC(=O)[C@H](CC(C)C)NC(=O)[C@H](CCC(N)=O)NC(=O)[C@@H]1CCCN1C(=O)[C@@H]1CCCN1C(=O)[C@H](CCCNC(=N)N)NC(=O)[C@H](CCCNC(=N)N)NC(=O)[C@H](CCCNC(=N)N)NC(=O)[C@H](CCC(N)=O)NC(=O)[C@H](CCCNC(=N)N)NC(=O)[C@H](CCCNC(=N)N)NC(=O)[C@H](CCCCN)NC(=O)[C@H](CCCCN)NC(=O)[C@H](CCCNC(=N)N)NC(=O)CN)C(=O)N[C@@H](CS)C(=O)N[C@@H](CCCCN)C(=O)N[C@@H](CCCNC(=N)N)C(=O)N1CCC[C@H]1C(=O)N[C@@H](CCCNC(=N)N)C(=O)N[C@@H](CC(=O)O)C(=O)N[C@@H](Cc1ccc(O)cc1)C(=O)N[C@@H](CCCCN)C(=O)N[C@@H](CC(=O)O)C(=O)N[C@@H](CC(=O)O)C(=O)N[C@@H](CC(=O)O)C(=O)N[C@@H](CC(=O)O)C(=O)N[C@@H](CCCCN)C(=O)O [Tat-E1A-Flag (LS-EL)] (H-GRKKRRQRRRPPQLEEPGQPLDELCKRPRDYKDDDDK-OH)
- IC50 [1, 6]: > 200 µM
- IC50 ([1]; IC50 value, Table 4, inhibition of CtBP-E1A interaction): > 200 µM

Compound: EPGQPLSLSCKRPR [SEQ ID NO:135]
- IC50 ([2]; Table 5, 50% reduction of fluorescence polarization value): did not inhibit CtBP

Compound: EQTVPVDLSVARPR [SEQ ID NO:132]
- Kd ([3]; Table 5, FITC-peptide with CtBP): 2.2 µM
- Kd ([3]; affinity to CtBP1, Example 12): 2.2 µM

Compound: GRKKRRQRRRPPQGGEQTVPVDLSVARPRGL (also: conjugated to FITC) [Tat-E1A peptide]
- psoriasis-like phenotype [4]: significantly reduced
- resistance to IMQ-induction of psoriasis [5]: showed resistance

Compound: GSHMKETWWETWWTEWSQPKKKRKVLEEPGQPLDLSCQRPRDYKDDDDK [Pep1-E1A-Flag (K239Q) GSHM v.1]
- resistance to IMQ-induction of psoriasis [5]: showed resistance

Compound: KETWWETWWTEWSQPKKKRKVLEEPGQPLDLSCKRPRDYKDDDDK [Pep1-E1A-Flag]
- IC50 [1, 6]: 26.6 µM
